Data published in patent US10934310B2, “Inhibitors of Bruton's tyrosine kinase and method of their use” (JANSSEN PHARMACEUTICA NV, priority 2015, dated 2021).

The compounds below were run against unphosphorylated-BTK kinase domain (UP-BTK), GST-tagged human BTK (389-659aa) (Homo sapiens (Human), UniProt Q06187) (assay: BTK Kinase Lanthascreen Binding Assay). Settings: Lanthascreen binding, 60 minutes incubation; pIC50 = negative log of the IC50 in molar.
Procedure: BTK Kinase Lanthascreen Binding Assay:
A BTK kinase lanthascreen binding assay monitors compound binding to unphosphorylated-BTK kinase domain (UP-BTK), by competing with a fluorescent labeled tracer. […] Data were analyzed using Xlfit™ version 5.3 from ID Business Solutions (Guildford), Microsoft Excel add-in. pIC50 refers to the negative log of the IC50 in molar.

unphosphorylated-BTK kinase domain (UP-BTK), GST-tagged human BTK (389-659aa), sequence (Q06187 389-659): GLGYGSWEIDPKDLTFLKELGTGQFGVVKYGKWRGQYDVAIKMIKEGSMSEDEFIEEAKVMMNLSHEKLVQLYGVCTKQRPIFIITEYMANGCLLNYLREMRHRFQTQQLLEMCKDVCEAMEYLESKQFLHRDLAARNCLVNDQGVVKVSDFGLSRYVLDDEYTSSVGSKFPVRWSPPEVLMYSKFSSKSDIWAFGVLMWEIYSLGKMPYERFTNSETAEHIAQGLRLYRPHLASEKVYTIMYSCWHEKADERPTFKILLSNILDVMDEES

Structure (SMILES)	BTK_I_binding pIC50
C=CC(=O)N[C@H]1CCCC[C@H]1NC(=O)c1sc2nccc3c2c1NC(=O)N3c1ncc(Oc2ccccc2)cn1 [Example 297, N-((1R,2S)-2-Acrylamidocyclohexyl)-4-oxo-5-(5-phenoxypyrimidin-2-yl)-4,5-dihydro-3H-1-thia-3,5,8-triazaacenaphthylene-2-carboxamide]	8.53
C=CC(=O)N[C@H]1CCC[C@H]1NC(=O)c1sc2nccc3c2c1NC(=O)N3c1cnc(CC(C)C)cc1C [Example 298, N-((1R,2S)-2-Acrylamidocyclopentyl)-5-(S)-(6-isobutyl-4-methylpyridin-3-yl)-4-oxo-4,5-dihydro-3H-1-thia-3,5,8-triazaacenaphthylene-2-carboxamide]	8.09
C=CC(=O)N[C@H]1CCCC[C@H]1NC(=O)c1sc2nccc3c2c1NC(=O)N3c1cnc(Oc2ccccc2)nc1 [Example 302, N-((1R,2S)-2-Acrylamidocyclohexyl)-4-oxo-5-(2-phenoxypyrimidin-5-yl)-4,5-dihydro-3H-1-thia-3,5,8-triazaacenaphthylene-2-carboxamide]	8.23
C=CC(=O)N[C@H]1CCC[C@H]1NC(=O)c1sc2nccc3c2c1NC(=O)N3c1ccc(Oc2cccnn2)cc1C [Example 305, N-((1R,2S)-2-Acrylamidocyclopentyl)-5-(2-methyl-4-(pyridazin-3-yloxy)phenyl)-4-oxo-4,5-dihydro-3H-1-thia-3,5,8-triazaacenaphthylene-2-carboxamide]	7.84
C=CC(=O)N[C@H]1CCC[C@H]1NC(=O)c1sc2nccc3c2c1NC(=O)N3c1ccnc(-c2cccnc2)c1 [Example 317, 5-([2,3′-Bipyridin]-4-yl)-N-((1R,2S)-2-acrylamidocyclopentyl)-4-oxo-4,5-dihydro-3H-1-thia-3,5,8-triazaacenaphthylene-2-carboxamide]	7.74
C=CC(=O)N[C@@H]1CC[C@H](NC(=O)c2sc3nccc4c3c2NC(=O)N4c2cnc(Oc3ccccc3)nc2)C1 [Example 319, N-((1S,3R)-3-Acrylamidocyclopentyl)-4-oxo-5-(2-phenoxypyrimidin-5-yl)-4,5-dihydro-3H-1-thia-3,5,8-triazaacenaphthylene-2-carboxamide]	7.21
C=CC(=O)N[C@H]1CCC[C@H]1NC(=O)c1sc2nccc3c2c1NC(=O)N3c1ccnc(-c2ccccn2)c1 [Example 325, 5-([2,2′-Bipyridin]-4-yl)-N-((1R,2S)-2-acrylamidocyclopentyl)-4-oxo-4,5-dihydro-3H-1-thia-3,5,8-triazaacenaphthylene-2-carboxamide]	7.07
C=CC(=O)N[C@@H]1CCC[C@H]1NC(=O)c1sc2nccc3c2c1NC(=O)N3c1ccnc(-c2cccnc2)c1 [Example 326, 5-([2,3′-Bipyridin]-4-yl)-N-((1R,2R)-2-acrylamidocyclopentyl)-4-oxo-4,5-dihydro-3H-1-thia-3,5,8-triazaacenaphthylene-2-carboxamide]	6.72
C=CC(=O)N[C@H]1CCC[C@H]1NC(=O)c1sc2nccc3c2c1NC(=O)N3c1cnc(NC(C)C)cc1C [Example 330, N-((1R,2S)-2-Acrylamidocyclopentyl)-5-(6-(isopropylamino)-4-methylpyridin-3-yl)-4-oxo-4,5-dihydro-3H-1-thia-3,5,8-triazaacenaphthylene-2-carboxamide]	6.69
C=CC(=O)N[C@@H]1CCC[C@H]1NC(=O)c1sc2nccc3c2c1NC(=O)N3c1ccnc(C(C)C)c1 [Example 337, N-((1R,2R)-2-Acrylamidocyclopentyl)-5-(2-isopropylpyridin-4-yl)-4-oxo-4,5-dihydro-3H-1-thia-3,5,8-triazaacenaphthylene-2-carboxamide]	6.42
C=CC(=O)N[C@@H]1CCCC[C@H]1NC(=O)c1sc2nccc3c2c1NC(=O)N3c1cnc(Oc2ccccc2)nc1 [Example 338, N-((1R,2R)-2-Acrylamidocyclohexyl)-4-oxo-5-(2-phenoxypyrimidin-5-yl)-4,5-dihydro-3H-1-thia-3,5,8-triazaacenaphthylene-2-carboxamide]	6.39
C=CC(=O)N[C@@H]1CCC[C@H]1NC(=O)c1sc2nccc3c2c1NC(=O)N3c1ccnc(-c2ccccn2)c1 [Example 342, 5-([2,2′-Bipyridin]-4-yl)-N-((1R,2R)-2-acrylamidocyclopentyl)-4-oxo-4,5-dihydro-3H-1-thia-3,5,8-triazaacenaphthylene-2-carboxamide]	6.12
C=CC(=O)N[C@H]1CCC[C@H]1NC(=O)c1sc2nccc3c2c1NC(=O)N3c1ccc(Oc2cccnc2C)cc1C [Example 367, N-((1R,2S)-2-acrylamidocyclopentyl)-5-(2-methyl-4-((2-methylpyridin-3-yl)oxy)phenyl)-4-oxo-4,5-dihydro-3H-1-thia-3,5,8-triazaacenaphthylene-2-carboxamide]	7.54
C=CC(=O)N[C@H]1CCC[C@H]1NC(=O)c1sc2nccc3c2c1NC(=O)N3c1ccc(Oc2cccc(C)n2)cc1C [Example 368, N-((1R,2S)-2-acrylamidocyclopentyl)-5-(2-methyl-4-((6-methylpyridin-2-yl)oxy)phenyl)-4-oxo-4,5-dihydro-3H-1-thia-3,5,8-triazaacenaphthylene-2-carboxamide]	8.13
C=CC(=O)N[C@H]1CCC[C@H]1NC(=O)c1sc2nccc3c2c1NC(=O)N3c1ccc(Oc2cccc(C)n2)cc1 [Example 369, N-((1R,2S)-2-Acrylamidocyclopentyl)-5-(4-((6-methylpyridin-2-yl)oxy)phenyl)-4-oxo-4,5-dihydro-3H-1-thia-3,5,8-triazaacenaphthylene-2-carboxamide]	8.06
C=CC(=O)N[C@H]1CCC[C@H]1NC(=O)c1sc2nccc3c2c1NC(=O)N3c1ccc(Oc2ccc(C)nc2)cc1 [Example 370, N-((1R,2S)-2-Acrylamidocyclopentyl)-5-(4-((6-methylpyridin-3-yl)oxy)phenyl)-4-oxo-4,5-dihydro-3H-1-thia-3,5,8-triazaacenaphthylene-2-carboxamide]	7.79

Other lines, results leading:

BTK_I_binding pIC50	Structure (SMILES)
8.39	C=CC(=O)N[C@H]1CCC[C@H]1NC(=O)c1sc2nccc3c2c1NC(=O)N3c1ncc(Oc2ccccc2)cn1 [Example 296, N-((1R,2S)-2-acrylamidocyclopentyl)-4-oxo-5-(5-phenoxypyrimidin-2-yl)-4,5-dihydro-3H-1-thia-3,5,8-triazaacenaphthylene-2-carboxamide]
7.58	C=CC(=O)N[C@@H]1CCC[C@H]1NC(=O)c1sc2nccc3c2c1NC(=O)N3c1ncc(Oc2ccccc2)cn1 [Example 307, N-((1R,2R)-2-Acrylamidocyclopentyl)-4-oxo-5-(5-phenoxypyrimidin-2-yl)-4,5-dihydro-3H-1-thia-3,5,8-triazaacenaphthylene-2-carboxamide]
8.04	C=CC(=O)N[C@H]1CCC[C@H]1NC(=O)c1sc2nccc3c2c1NC(=O)N3c1cnc(Oc2ccccc2)nc1 [Example 310, N-((1R,2S)-2-Acrylamidocyclopentyl)-4-oxo-5-(2-phenoxypyrimidin-5-yl)-4,5-dihydro-3H-1-thia-3,5,8-triazaacenaphthylene-2-carboxamide]
7.57	C=CC(=O)N[C@@H]1CCC[C@H]1NC(=O)c1sc2nccc3c2c1NC(=O)N3c1cnc(Oc2ccccc2)cn1 [Example 311, N-((1R,2R)-2-Acrylamidocyclopentyl)-4-oxo-5-(5-phenoxypyrazin-2-yl)-4,5-dihydro-3H-1-thia-3,5,8-triazaacenaphthylene-2-carboxamide]
7.14	C=CC(=O)N[C@@H]1CCC[C@H]1NC(=O)c1sc2nccc3c2c1NC(=O)N3c1cnc(Oc2ccccc2)nc1 [Example 314, N-((1R,2R)-2-Acrylamidocyclopentyl)-4-oxo-5-(2-phenoxypyrimidin-5-yl)-4,5-dihydro-3H-1-thia-3,5,8-triazaacenaphthylene-2-carboxamide]
7.23	C=CC(=O)N[C@H]1CCC[C@H]1NC(=O)c1sc2nccc3c2c1NC(=O)N3c1cc(-c2ccccc2)cnn1 [Example 320, N-((1R,2S)-2-Acrylamidocyclopentyl)-4-oxo-5-(5-phenylpyridazin-3-yl)-4,5-dihydro-3H-1-thia-3,5,8-triazaacenaphthylene-2-carboxamide]
6.90	C=CC(=O)N[C@@H]1CCC[C@H]1NC(=O)c1sc2nccc3c2c1NC(=O)N3c1cccc(-c2cccnc2)c1 [Example 324, N-((1R,2R)-2-Acrylamidocyclopentyl)-4-oxo-5-(3-(pyridin-3-yl)phenyl)-4,5-dihydro-3H-1-thia-3,5,8-triazaacenaphthylene-2-carboxamide]
6.98	C=CC(=O)N[C@@H]1CCC[C@H]1NC(=O)c1sc2nccc3c2c1NC(=O)N3c1cccc(-c2ccccn2)c1 [Example 327, N-((1R,2R)-2-Acrylamidocyclopentyl)-4-oxo-5-(3-(pyridin-2-yl)phenyl)-4,5-dihydro-3H-1-thia-3,5,8-triazaacenaphthylene-2-carboxamide]
6.01	CC(C)c1cc(N2C(=O)Nc3c(C(=O)N[C@@H]4CCC[C@H]4N)sc4nccc2c34)ccn1 [Example 336, N-((1R,2R)-2-Aminocyclopentyl)-5-(2-isopropylpyridin-4-yl)-4-oxo-4,5-dihydro-3H-1-thia-3,5,8-triazaacenaphthylene-2-carboxamide]

Same assay, conditions: read-out: BTK_I_binding pIC50 (converted)

IC50 [nM]	Structure (SMILES)
> 1000	N[C@H]1CCC[C@H]1NC(=O)c1sc2nccc3c2c1NC(=O)N3c1cc(-c2ccccc2)cnn1 [Example 349, N-((1R,2S)-2-Aminocyclopentyl)-4-oxo-5-(5-phenylpyridazin-3-yl)-4,5-dihydro-3H-1-thia-3,5,8-triazaacenaphthylene-2-carboxamide]
> 1000	C=CC(=O)N[C@@H]1CCC[C@H](NC(=O)c2sc3nccc4c3c2NC(=O)N4c2ccnc(-c3ccccc3)c2)C1 [Example 351, N-((1S,3R)-3-Acrylamidocyclohexyl)-4-oxo-5-(2-phenylpyridin-4-yl)-4,5-dihydro-3H-1-thia-3,5,8-triazaacenaphthylene-2-carboxamide]
